In ChEMBL document CHEMBL5137063, “Medicinal Chemistry and Chemical Biology of Nurr1 Modulators: An Emerging Strategy in Neurodegeneration” (J Med Chem, 2022) one finds Kd, EC50 and Activity data, which are given here for eight molecules.

Assay [1] concerns the target T1, Nuclear receptor subfamily 4 group A member 2 (Homo sapiens, UniProt P43354). As to the kind of experiment: Binding affinity towards Nurr1 ligand binding domain (unknown origin) measured by tryptophan fluorescence spectroscopy.
Assay [2] deals with T1, Nuclear receptor subfamily 4 group A member 2. As to the kind of experiment: Agonist activity at Nurr1 in human SK-N-BE(2)-C cells measured by Gal4-based luciferase reporter gene assay. It counts as cell-based.
In assay [3] the target is T2, Nuclear receptor subfamily 4 group A member 2 (Rattus norvegicus, UniProt Q07917). The assay can be described thus: Agonist activity at Nurr1 in rat N27-A cells measured by NBRE-based luciferase reporter gene assay. The format is cell-based. (In general: In a reporter assay the amount or activity of a reporter protein is the signal.)
T2 sequence (Q07917 whole entry, the tested form may be a part): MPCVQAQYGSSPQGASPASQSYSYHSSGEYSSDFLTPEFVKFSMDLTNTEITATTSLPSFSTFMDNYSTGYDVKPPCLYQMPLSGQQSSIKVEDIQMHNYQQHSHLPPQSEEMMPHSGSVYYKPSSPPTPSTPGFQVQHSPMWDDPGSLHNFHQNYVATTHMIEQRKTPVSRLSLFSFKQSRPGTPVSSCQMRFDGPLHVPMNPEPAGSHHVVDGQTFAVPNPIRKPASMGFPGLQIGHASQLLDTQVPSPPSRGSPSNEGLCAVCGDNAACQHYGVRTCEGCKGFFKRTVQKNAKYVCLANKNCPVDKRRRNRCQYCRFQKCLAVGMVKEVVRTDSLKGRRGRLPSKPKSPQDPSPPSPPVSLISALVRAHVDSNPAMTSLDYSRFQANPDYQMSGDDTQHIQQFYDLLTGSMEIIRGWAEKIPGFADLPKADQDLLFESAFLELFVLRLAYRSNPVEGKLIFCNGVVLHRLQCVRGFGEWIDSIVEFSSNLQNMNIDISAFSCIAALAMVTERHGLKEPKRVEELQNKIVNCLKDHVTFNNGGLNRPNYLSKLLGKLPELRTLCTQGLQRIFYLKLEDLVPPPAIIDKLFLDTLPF
In assay [4] the target is T2, Nuclear receptor subfamily 4 group A member 2. The assay can be described thus: Agonist activity at Nurr1 in rat N27-A cells measured by Gal4-based luciferase reporter gene assay. The format is cell-based.
In assay [5] the target is T3, Nuclear receptor subfamily 4 group A member 2 (Mus musculus, UniProt Q06219). As to the kind of experiment: Agonist activity at Nurr1 in mouse MN9D cells measured by NBRE-based luciferase reporter gene assay. It counts as cell-based.
T3 sequence (Q06219 whole entry, the tested form may be a part): as the sequence (Q07917 whole entry, the tested form may be a part) above, with G134S, R182P counted along it
Assay [6] deals with T3, Nuclear receptor subfamily 4 group A member 2. As to the kind of experiment: Agonist activity at Nurr1 in mouse MN9D cells measured by Gal4-based luciferase reporter gene assay. The format is cell-based.
Assay [7] concerns the target T1, Nuclear receptor subfamily 4 group A member 2. As to the kind of experiment: Agonist activity at Nurr1 in human SK-N-BE(2)-C cells measured by NBRE-based luciferase reporter gene assay. The format is cell-based.
For assay [8] the target is unchanged. As to the kind of experiment: Agonist activity at Nurr1 ligand binding domain (unknown origin) measured by Gal4-based reporter gene assay.
For assay [9] the target is unchanged. The assay can be described thus: Antagonist activity at full length human Nurr1 expressed in MN9D cells co-expressing 3xNBRE3-luciferase at 50 uM incubated for 18 hrs by luciferase transactivation assay relative to control. The format is cell-based. Also noted: scale not given: the % may be the effect or the level left.
For assay [10] the target is unchanged. As to the kind of experiment: Antagonist activity at full length human Nurr1 expressed in HEK293T cells co-expressing 3xNBRE3-luciferase at 50 uM incubated for 18 hrs by luciferase transactivation assay relative to control. It counts as cell-based. Further details: scale not given: the % may be the effect or the level left.
For assay [11] the target is unchanged. As to the kind of experiment: Agonist activity at human Nurr1 measured by Gal4-Nurr1 hybrid reporter gene assay.

The Kd is a measure of binding affinity in units of concentration. The EC50 is the concentration at which the effect is half-maximal.

T1 sequence (P43354 whole entry, the tested form may be a part): as the sequence (Q07917 whole entry, the tested form may be a part) above, with S131T, R182P, D354E counted along it

In [1], `CCCCCCCC/C=C\CCCCCCCC(=O)O` [OLEIC ACID] had a Kd of 50 µM.
For `CCCCC[C@H](O)/C=C/[C@H]1[C@H](O)CC(=O)[C@@H]1CCCCCCC(=O)O` [ALPROSTADIL], the EC50 in [2], in assay [3], in assay [4], in assay [5], in assay [6] and in assay [7] was 3 µM in each case.
On to `CCN(CC)Cc1cc(Nc2ccnc3cc(Cl)ccc23)ccc1O` [AMODIAQUINE], for which, in [8], the EC50 was found to be 20 µM.
Turning to `CCCCC/C=C\C/C=C\C/C=C\C/C=C\CCCC(=O)O` [ARACHIDONIC ACID], the Kd in assay [1] came to 50 µM.
For `CC/C=C\C/C=C\C/C=C\C/C=C\C/C=C\C/C=C\CCC(=O)O`, the Activity in assay [9] and in assay [10] was 25% in each case.
`CCCCC/C=C\C/C=C\CCCCCCCC(=O)O` [LINOLEIC ACID]: the Kd in assay [1] was 50 µM.
On to `CCCCC[C@H](O)/C=C/[C@H]1C=CC(=O)[C@@H]1CCCCCCC(=O)O` [PROSTAGLANDIN A1], for which the EC50 in assay [2], in assay [3], in assay [4], in assay [5], in assay [6] and in [7] was 5 µM each time.
On to `Fc1ccc(-c2c[nH]c3ccccc23)cc1`, for which the midpoint of the response in assay [11], the EC50, lay at 7.7 µM.
